Measured values: BindingDB's records for patent US20240124450 (Pfizer, 2024)

Tests used:
Assay in all cases: Enzyme Assay: Pan SIK MS IC50 Assay
[1] = target: Serine/threonine-protein kinase SIK1 (Homo sapiens, UniProt P57059)
Experimental: (§1) Salt Induced Kinase (SIK) activity is determined by measuring the effect of a test agent on the activity of the appropriate SIK enzyme to phosphorylate its corresponding substrate. […] The phosphorylated substrate product resulting from the kinase reaction is detected by LCMS/MS, and the area under the peak curve correlates with kinase activity. […] The plates are spun at 1000 rpm for 30 seconds to ensure compounds are at the bottom of the well before removing foil covers. 0.15 μL HPE (assay std) and ZPE (DMSO) are added to the ARP using an HP D300 dispenser. Plates are spun again at 1000 rpm for 30 seconds. […] Plates are spun at 1000 rpm for 30 seconds. Plates are then sealed and incubated at RT for 10 minutes. Following incubation, 5 μL of 5× peptide reagent is added with a Multidrop Combi and designated small volume cassette to initiate the kinase reaction. Plates are spun at 1000 rpm for 30 seconds. Plates are then sealed and incubated at RT for 90 minutes. The assay is stopped by the addition of 5 μl of 120 mM EDTA added with a Multidrop Combi and designated small volume cassette (20 mM final concentration). Plates are spun at 1000 rpm for 30 seconds. 10 μl of the final reaction mix from each of the three individual enzyme plates are transferred by a Platemate Plus to the same corresponding 96 well deepwell plate containing 70 μl Water/Methanol (85/15%) for multiplex MS detection ([…]). Using Activity Base (ABase), an idbs data analysis software tool, the reported area ratio unit data is associated to compound, batch and dose information, the data is evaluated for quality, and the percent inhibition of each well is calculated. The data from each Max effect/HPE and Min effect/ZPE control wells are assessed, and outliers are excluded from all further calculations. The mean and standard deviation of the HPE and ZPE are then calculated for each plate, along with the Z Prime. The compound data is converted into % effect, using the average ZPE and HPE controls as 0% and 100% activity, respectively.

[2] = target: Serine/threonine-protein kinase SIK3 (Homo sapiens, UniProt Q9Y2K2)
Experimental: as §1

[3] = target: Serine/threonine-protein kinase SIK2 (Homo sapiens, UniProt Q9H0K1)
Experimental: as §1

Chain of Serine/threonine-protein kinase SIK3 (Q9Y2K2 whole entry): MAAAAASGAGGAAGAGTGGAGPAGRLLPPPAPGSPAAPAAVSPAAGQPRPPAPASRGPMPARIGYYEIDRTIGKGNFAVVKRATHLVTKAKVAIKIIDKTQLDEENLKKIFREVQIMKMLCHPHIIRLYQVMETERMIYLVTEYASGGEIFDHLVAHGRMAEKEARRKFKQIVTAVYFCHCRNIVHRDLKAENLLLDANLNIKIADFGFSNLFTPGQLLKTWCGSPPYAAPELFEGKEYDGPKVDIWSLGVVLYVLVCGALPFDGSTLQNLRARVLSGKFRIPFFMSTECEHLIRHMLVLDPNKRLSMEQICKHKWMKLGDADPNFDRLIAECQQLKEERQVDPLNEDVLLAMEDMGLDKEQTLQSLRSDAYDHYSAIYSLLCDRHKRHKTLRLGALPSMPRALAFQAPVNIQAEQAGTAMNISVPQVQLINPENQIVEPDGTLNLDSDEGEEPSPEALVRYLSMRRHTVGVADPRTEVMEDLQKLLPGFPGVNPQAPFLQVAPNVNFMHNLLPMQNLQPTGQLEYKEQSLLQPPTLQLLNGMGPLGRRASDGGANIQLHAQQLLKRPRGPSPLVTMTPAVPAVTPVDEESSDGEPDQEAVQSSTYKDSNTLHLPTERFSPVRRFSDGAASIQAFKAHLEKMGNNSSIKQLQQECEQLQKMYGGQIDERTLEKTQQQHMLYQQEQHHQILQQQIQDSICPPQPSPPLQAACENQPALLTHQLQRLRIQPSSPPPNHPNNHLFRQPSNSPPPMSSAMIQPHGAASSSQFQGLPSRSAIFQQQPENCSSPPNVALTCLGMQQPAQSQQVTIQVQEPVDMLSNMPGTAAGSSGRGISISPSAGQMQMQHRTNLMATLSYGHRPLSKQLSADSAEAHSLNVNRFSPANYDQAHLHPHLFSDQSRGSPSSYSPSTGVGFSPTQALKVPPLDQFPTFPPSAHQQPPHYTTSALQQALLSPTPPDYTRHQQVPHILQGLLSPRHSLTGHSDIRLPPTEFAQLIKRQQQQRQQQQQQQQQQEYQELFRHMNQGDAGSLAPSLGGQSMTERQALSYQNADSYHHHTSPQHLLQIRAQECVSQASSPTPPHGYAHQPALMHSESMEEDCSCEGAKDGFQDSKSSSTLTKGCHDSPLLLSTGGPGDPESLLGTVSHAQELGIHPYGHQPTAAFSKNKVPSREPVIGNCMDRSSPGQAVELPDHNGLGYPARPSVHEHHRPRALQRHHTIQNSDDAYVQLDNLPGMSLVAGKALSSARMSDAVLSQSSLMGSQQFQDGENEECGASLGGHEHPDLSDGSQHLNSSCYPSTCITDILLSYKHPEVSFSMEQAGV
Chain of Serine/threonine-protein kinase SIK1 (P57059 whole entry): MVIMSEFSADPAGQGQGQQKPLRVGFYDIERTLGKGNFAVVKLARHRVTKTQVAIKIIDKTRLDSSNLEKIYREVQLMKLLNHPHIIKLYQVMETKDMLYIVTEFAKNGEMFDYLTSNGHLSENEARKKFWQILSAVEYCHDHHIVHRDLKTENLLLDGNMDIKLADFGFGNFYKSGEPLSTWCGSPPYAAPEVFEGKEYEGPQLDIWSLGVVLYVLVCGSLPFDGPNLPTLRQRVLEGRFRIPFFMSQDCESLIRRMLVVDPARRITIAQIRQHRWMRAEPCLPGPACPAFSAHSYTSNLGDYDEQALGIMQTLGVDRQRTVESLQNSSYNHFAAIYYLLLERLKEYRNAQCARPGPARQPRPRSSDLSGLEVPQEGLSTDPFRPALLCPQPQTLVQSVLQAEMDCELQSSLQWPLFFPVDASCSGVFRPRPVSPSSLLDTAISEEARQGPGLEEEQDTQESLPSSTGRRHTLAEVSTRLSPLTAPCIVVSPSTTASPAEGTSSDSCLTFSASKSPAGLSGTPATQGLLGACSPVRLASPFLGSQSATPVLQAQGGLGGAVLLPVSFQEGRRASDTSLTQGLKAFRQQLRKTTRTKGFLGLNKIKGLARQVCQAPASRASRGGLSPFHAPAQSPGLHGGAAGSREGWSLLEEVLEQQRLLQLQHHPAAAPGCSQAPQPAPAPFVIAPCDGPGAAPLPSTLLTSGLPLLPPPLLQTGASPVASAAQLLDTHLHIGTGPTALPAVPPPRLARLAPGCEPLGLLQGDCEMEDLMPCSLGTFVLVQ
Chain of Serine/threonine-protein kinase SIK2 (Q9H0K1 whole entry): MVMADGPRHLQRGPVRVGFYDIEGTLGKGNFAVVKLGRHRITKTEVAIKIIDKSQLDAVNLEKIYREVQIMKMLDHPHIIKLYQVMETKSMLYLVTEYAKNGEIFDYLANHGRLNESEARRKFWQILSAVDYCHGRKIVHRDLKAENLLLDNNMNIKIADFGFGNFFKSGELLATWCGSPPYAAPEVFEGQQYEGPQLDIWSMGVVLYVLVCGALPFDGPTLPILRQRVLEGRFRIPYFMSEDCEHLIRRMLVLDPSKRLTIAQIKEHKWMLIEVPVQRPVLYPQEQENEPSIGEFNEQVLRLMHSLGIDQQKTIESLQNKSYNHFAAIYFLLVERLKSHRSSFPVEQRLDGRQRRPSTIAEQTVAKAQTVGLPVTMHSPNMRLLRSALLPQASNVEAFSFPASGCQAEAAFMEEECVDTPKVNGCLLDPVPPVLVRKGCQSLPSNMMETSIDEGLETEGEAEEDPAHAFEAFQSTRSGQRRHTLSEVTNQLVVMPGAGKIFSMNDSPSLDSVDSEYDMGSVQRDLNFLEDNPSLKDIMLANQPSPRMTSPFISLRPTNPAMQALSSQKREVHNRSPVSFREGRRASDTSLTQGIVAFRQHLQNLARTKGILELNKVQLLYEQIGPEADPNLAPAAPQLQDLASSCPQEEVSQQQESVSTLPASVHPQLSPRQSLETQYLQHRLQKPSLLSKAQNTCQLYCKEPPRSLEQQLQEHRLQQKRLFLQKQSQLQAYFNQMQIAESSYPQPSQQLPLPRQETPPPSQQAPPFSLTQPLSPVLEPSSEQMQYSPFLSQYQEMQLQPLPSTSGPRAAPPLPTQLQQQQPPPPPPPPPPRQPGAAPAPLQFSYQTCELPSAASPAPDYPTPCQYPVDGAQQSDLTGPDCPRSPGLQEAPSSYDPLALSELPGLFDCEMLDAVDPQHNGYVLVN

SMILES	IC50 [1] [nM]	IC50 [2] [nM]	IC50 [3] [nM]
CC[C@@H]1CCC[C@](N)(COc2cc(-c3cnc4cccc(OC)n34)cc(OC)c2C#N)C1 [US20240124450, Example 16]	0.8	1.7	
CC[C@@H]1CCC[C@@]1(N)COc1cc(-c2cnc3cccc(OC)n23)cc(SC)c1C#N (mixture of isomers) [US20240124450, Example 9]	0.9	2	
CSc1cc(-c2cnc3cccc(C#N)n23)cc(OC[C@@]2(N)CCC(F)(F)C2)c1C#N (mixture of isomers) [US20240124450, Example 12]	2.4	4.8	1.8
